Entries after “also recorded” stand apart in the source; their conditions may differ. Like-named read-outs stand apart in the source and are kept apart here.
Legend:
[1] = target: T1, Nurr1 (Homo sapiens, UniProt P43354); experiment: Ligand efficiency metrics; conditions: computed according to ref. 29
Target sequence in this assay (P43354 whole entry): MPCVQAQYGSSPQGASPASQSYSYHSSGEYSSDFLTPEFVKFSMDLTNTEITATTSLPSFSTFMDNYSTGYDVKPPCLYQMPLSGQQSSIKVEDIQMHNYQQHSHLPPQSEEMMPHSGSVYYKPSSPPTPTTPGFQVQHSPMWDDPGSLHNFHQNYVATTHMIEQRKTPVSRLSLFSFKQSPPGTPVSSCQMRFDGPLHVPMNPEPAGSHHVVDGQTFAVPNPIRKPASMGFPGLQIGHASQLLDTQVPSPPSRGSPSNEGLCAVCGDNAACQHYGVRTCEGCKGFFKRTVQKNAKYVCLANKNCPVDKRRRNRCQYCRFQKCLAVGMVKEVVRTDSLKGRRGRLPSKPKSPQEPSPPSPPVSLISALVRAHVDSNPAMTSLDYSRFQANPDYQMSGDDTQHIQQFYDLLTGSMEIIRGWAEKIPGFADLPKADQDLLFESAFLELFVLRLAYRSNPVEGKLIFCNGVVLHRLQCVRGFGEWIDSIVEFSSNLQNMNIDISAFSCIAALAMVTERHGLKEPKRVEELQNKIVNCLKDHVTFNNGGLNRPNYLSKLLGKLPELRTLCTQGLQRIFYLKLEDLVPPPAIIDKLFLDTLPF

[2] = target: T1, Nurr1; conditions: Nurr1 agonism, literature values (refs. 24, 27, 28); cited from earlier work
Target sequence in this assay (P43354 whole entry): as above

[3] = Compound stability (observation); assay type: physicochemical; conditions: printed in the EC50 column of Table 1
[4] = target: T2, Nur77 (Homo sapiens, UniProt P22736); experiment: Gal4 hybrid reporter gene assay, selectivity profiling (Nur77); assay type: cell-based
T2 construct: expressed in transfected cells; host or cells: HEK293T
T2 sequence (P22736 360-595 limits assumed): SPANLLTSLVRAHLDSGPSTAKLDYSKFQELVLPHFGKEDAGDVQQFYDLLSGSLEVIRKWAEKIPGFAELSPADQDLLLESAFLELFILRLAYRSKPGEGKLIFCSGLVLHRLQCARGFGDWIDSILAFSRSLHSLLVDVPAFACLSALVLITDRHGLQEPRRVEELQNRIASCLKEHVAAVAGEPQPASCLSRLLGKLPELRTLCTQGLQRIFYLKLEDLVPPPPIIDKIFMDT
Procedure: (§1) Hybrid reporter gene assays. Nurr1 modulation was determined in a Gal4 hybrid reporter gene assay in HEK293T cells (German Collection of Microorganisms and Cell Culture GmbH, DSMZ) using pFR-Luc (Stratagene, La Jolla, CA, USA; reporter), pRL-SV40 (Promega, Madison, WI, USA; internal control) and pFA-CMV-hNurr1-LBD^14, coding for the hinge region and ligand binding domain of the canonical isoform of human Nurr1. […] After 24 h, medium was changed to Opti-MEM without supplements and cells were transiently transfected using Lipofectamine LTX reagent (Invitrogen, Carlsbad, CA, USA) according to the manufacturer's protocol. Five hours after transfection, cells were incubated with the test compounds in Opti-MEM supplemented with penicillin (100 U/mL), streptomycin (100 µg/mL) and 0.1% DMSO for 16 h before luciferase activity was measured using the Dual-Glo Luciferase Assay System (Promega) according to the manufacturer's protocol on a Tecan Spark luminometer (Tecan Deutschland GmbH, Crailsheim, Germany). Firefly luminescence was divided by Renilla luminescence and multiplied by 1000 resulting in relative light units (RLU) to normalize for transfection efficiency and cell growth. Fold activation was obtained by dividing the mean RLU of test compound by the mean RLU of the untreated control. All samples were tested in at least three biologically independent experiments in duplicates. […]

[5] = target: T3, NOR-1 (Homo sapiens, UniProt Q92570); experiment: Gal4 hybrid reporter gene assay, selectivity profiling (NOR-1); assay type: cell-based; conditions: result in words, at 10 µM
T3 construct: pFA-CMV-NOR-1-LBD; expressed in transfected cells; host or cells: HEK293T
T3 sequence (Q92570 394-623 limits assumed): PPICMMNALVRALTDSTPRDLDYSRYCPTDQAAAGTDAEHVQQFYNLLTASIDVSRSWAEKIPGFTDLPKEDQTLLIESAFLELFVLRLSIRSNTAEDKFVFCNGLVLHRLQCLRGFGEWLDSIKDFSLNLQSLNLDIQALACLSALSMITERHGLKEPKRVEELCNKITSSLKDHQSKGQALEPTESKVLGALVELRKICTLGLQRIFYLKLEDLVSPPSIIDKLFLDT

[6] = target: T4, Nurr1 monomer (NBRE) (Homo sapiens, UniProt P43354); experiment: Full-length Nurr1 reporter gene assay, response element NBRE; assay type: cell-based; conditions: result in words
T4 construct: The full length human nuclear receptor Nurr1 (pcDNA3.1-hNurr1-NE; Addgene plasmid #102363); NE (suffix in the plasmid name); host or cells: HEK293T
T4 sequence (P43354 whole entry): as the sequence (P43354 whole entry) above
From the text: (§2) Full-length Nurr1 reporter gene assays. Activation of full length human Nurr1 was studied in transiently transfected HEK293T cells using the reporter plasmids pFR-Luc-NBRE^14, pFR-Luc-POMC^14 or pFR-Luc-DR5^14 each containing one copy of the respective human Nurr1 response element NBRE Nl3, NurRE, or DR5. The full length human nuclear receptor Nurr1 (pcDNA3.1-hNurr1-NE; Addgene plasmid #102363) and, for DR5, RXRα (pSG5-hRXR)^44 were overexpressed. pRL-SV40 (Promega) was used for normalization of transfection efficacy and to observe test compound toxicity. […] After 24 h, medium was changed to Opti-MEM without supplements and cells were transiently transfected using Lipofectamine LTX reagent (invitrogen) according to the manufacturer's protocol. Five hours after transfection, cells were incubated with the test compounds in Opti-MEM supplemented with penicillin (100 U/mL), streptomycin (100 µg/mL) and 0.1% DMSO for 16 h before luciferase activity was measured using the Dual-Glo Luciferase Assay System (Promega) according to the manufacturer's protocol on a Tecan Spark luminometer (Tecan Deutschland GmbH). Firefly luminescence was divided by Renilla luminescence and multiplied by 1000 resulting in relative light units (RLU) to normalize for transfection efficiency and cell growth. […]

[7] = target: T5, Nurr1 homodimer (NurRE) (Homo sapiens, UniProt P43354); experiment: Full-length Nurr1 reporter gene assay, response element NurRE; assay type: cell-based
T5 construct: The full length human nuclear receptor Nurr1 (pcDNA3.1-hNurr1-NE; Addgene plasmid #102363); host or cells: HEK293T
T5 sequence (P43354 whole entry): as above
From the text: as §2

[8] = target: T6, Nurr1-RXR heterodimer (DR5) (Homo sapiens, UniProt P43354); experiment: Full-length Nurr1 reporter gene assay, response element DR5 with RXRα; assay type: cell-based
T6 construct: The full length human nuclear receptor Nurr1 (pcDNA3.1-hNurr1-NE; Addgene plasmid #102363); NE (suffix in the plasmid name); host or cells: HEK293T
T6 sequence (P43354 whole entry): as above
T6 sequence (P19793 whole entry partner): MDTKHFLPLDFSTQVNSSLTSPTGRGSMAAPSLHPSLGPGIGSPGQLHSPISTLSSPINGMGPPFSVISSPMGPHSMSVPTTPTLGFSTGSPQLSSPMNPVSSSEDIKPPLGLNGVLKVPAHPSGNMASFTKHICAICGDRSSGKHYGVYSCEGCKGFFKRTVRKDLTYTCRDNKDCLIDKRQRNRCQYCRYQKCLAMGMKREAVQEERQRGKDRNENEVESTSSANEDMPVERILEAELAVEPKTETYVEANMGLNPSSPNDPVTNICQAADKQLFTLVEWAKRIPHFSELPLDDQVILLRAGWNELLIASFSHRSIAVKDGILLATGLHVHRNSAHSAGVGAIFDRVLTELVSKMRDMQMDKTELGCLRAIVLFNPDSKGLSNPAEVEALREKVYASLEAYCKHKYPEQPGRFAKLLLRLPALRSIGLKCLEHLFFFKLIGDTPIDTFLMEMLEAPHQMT
From the text: Full-length Nurr1 reporter gene assays. Activation of full length human Nurr1 was studied in transiently transfected HEK293T cells using the reporter plasmids pFR-Luc-NBRE^14, pFR-Luc-POMC^14 or pFR-Luc-DR5^14 each containing one copy of the respective human Nurr1 response element NBRE Nl3, NurRE, or DR5. The full length human nuclear receptor Nurr1 (pcDNA3.1-hNurr1-NE; Addgene plasmid #102363) and, for DR5, RXRα (pSG5-hRXR)^44 were overexpressed. pRL-SV40 (Promega) was used for normalization of transfection efficacy and to observe test compound toxicity. […] After 24 h, medium was changed to Opti-MEM without supplements and cells were transiently transfected using Lipofectamine LTX reagent (invitrogen) according to the manufacturer's protocol. Five hours after transfection, cells were incubated with the test compounds in Opti-MEM supplemented with penicillin (100 U/mL), streptomycin (100 µg/mL) and 0.1% DMSO for 16 h before luciferase activity was measured using the Dual-Glo Luciferase Assay System (Promega) according to the manufacturer's protocol on a Tecan Spark luminometer (Tecan Deutschland GmbH). Firefly luminescence was divided by Renilla luminescence and multiplied by 1000 resulting in relative light units (RLU) to normalize for transfection efficiency and cell growth. Fold activation was obtained by dividing the mean RLU of test compound by the mean RLU of the untreated control. All samples were tested in at least three biologically independent experiments in duplicates. For dose-response curve fitting and calculation of EC50 values, the equation "[Agonist] vs. response -- Variable slope (four parameters)" was used in GraphPad Prism (version 7.00, GraphPad Software).

[9] = target: T7, Nurr1 LBD (Homo sapiens, UniProt P43354); experiment: Isothermal titration calorimetry (ITC); assay type: binding
T7 construct: Nurr1 LBD protein (10-30 µM, expressed as described previously^21); made in house
T7 sequence (P43354 360-595 limits assumed): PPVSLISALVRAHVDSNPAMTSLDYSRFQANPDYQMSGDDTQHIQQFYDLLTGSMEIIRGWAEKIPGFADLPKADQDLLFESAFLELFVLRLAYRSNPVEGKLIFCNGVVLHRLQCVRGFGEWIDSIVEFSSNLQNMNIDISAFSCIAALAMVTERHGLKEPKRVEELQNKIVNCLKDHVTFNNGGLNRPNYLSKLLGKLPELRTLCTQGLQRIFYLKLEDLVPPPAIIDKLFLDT
Procedure: Isothermal Titration Calorimetry (ITC). ITC experiments were conducted on an Affinity ITC instrument (TA Instruments, New Castle, DE) at 25°C with a stirring rate of 75 rpm. Nurr1 LBD protein (10-30 µM, expressed as described previously^21) in buffer (20 mM Tris pH 7.5, 100 mM NaCl, 5% glycerol) containing 1-4% DMSO was titrated with the test compounds (60-150 µM in the same buffer containing 1-4% DMSO) in 26 injections (1x 1 µL, 25x 3-4 µL) with an injection interval of 150 s. As control experiments, the test compounds were titrated to the buffer, and the buffer was titrated to the Nurr1 LBD protein under otherwise identical conditions. Results were analyzed using NanoAnalyze software (version 3.11.0, TA Instruments, New Castle, DE) with independent binding models.

[10] = test system: Nurr1-regulated tyrosine hydroxylase (TH), vesicular amino acid transporter 2 (VMAT2) and superoxide dismutase 2 (SOD2) in astrocytes (T98G); experiment: Nurr1-regulated gene expression in T98G cells (qPCR); assay type: cell-based, human
[11] = Determination of aqueous solubility; assay type: physicochemical; conditions: water, 24 h, 25°C
Procedure: Determination of aqueous solubility. […] The mixture was agitated in a VWR Thermal Shake lite (VWR International GmbH, Darmstadt, Germany) for 24 h at 600 rpm and constant temperature of 25°C. The supersaturated mixtures were subsequently centrifuged at 23.300 rpm for 15 min (25 °C). Part of the supernatant was taken off for quantification by UV absorbance at 312 nm with external calibration. The external calibration samples contained 1% DMSO and the test samples were spiked with DMSO to 1% concentration right before the measurement. Absorbance was measured with a Tecan Spark luminometer (Tecan Deutschland GmbH, Crailsheim, Germany). The solubility test was repeated in three independent experiments, […]

[12] = target: T1, Nurr1; experiment: Gal4-Nurr1 hybrid reporter gene assay in HEK293T cells; assay type: cell-based; design: expressed in transfected cells; host or cells: HEK293T
Procedure: Hybrid reporter gene assays. Nurr1 modulation was determined in a Gal4 hybrid reporter gene assay in HEK293T cells (German Collection of Microorganisms and Cell Culture GmbH, DSMZ) using pFR-Luc (Stratagene, La Jolla, CA, USA; reporter), pRL-SV40 (Promega, Madison, WI, USA; internal control) and pFA-CMV-hNurr1-LBD^14, coding for the hinge region and ligand binding domain of the canonical isoform of human Nurr1. […] After 24 h, medium was changed to Opti-MEM without supplements and cells were transiently transfected using Lipofectamine LTX reagent (Invitrogen, Carlsbad, CA, USA) according to the manufacturer's protocol. Five hours after transfection, cells were incubated with the test compounds in Opti-MEM supplemented with penicillin (100 U/mL), streptomycin (100 µg/mL) and 0.1% DMSO for 16 h before luciferase activity was measured using the Dual-Glo Luciferase Assay System (Promega) according to the manufacturer's protocol on a Tecan Spark luminometer (Tecan Deutschland GmbH, Crailsheim, Germany). Firefly luminescence was divided by Renilla luminescence and multiplied by 1000 resulting in relative light units (RLU) to normalize for transfection efficiency and cell growth. Fold activation was obtained by dividing the mean RLU of test compound by the mean RLU of the untreated control. All samples were tested in at least three biologically independent experiments in duplicates. For dose-response curve fitting and calculation of EC50 values, the equation "[Agonist] vs. response -- Variable slope (four parameters)" was used in GraphPad Prism (version 7.00, GraphPad Software, La Jolla, CA, USA). Selectivity profiling was performed with identical procedures using pFA-CMV-Nur77-LBD^14, pFA-CMV-NOR-1-LBD^14, pFA-CMV-THRα-LBD^39, pFA-CMV-RARα-LBD^40, pFA-CMV-PPARα-LBD^41, pFA-CMV-PPARγ-LBD^41, pFA-CMV-PPARδ-LBD^41, pFA-CMV-LXRα-LBD^37, pFA-CMV-FXR-LBD^42 and pFA-CMV-hRXRα-LBD^43.
Target sequence in this assay (P43354 360-595 limits assumed): as above

[13] = test system: THRα, RARα, PPARα, PPARγ, PPARδ, LXRα, FXR, RXRα; experiment: Selectivity screening on nuclear receptors outside the NR4A family (Gal4 hybrid reporter gene assays); assay type: cell-based
Procedure: as §1

[14] = 0.1 µM, 0.3 µM, mRNA vs. DMSO control

## CCN(CC)Cc1cc(Nc2ccnc3cc(Cl)ccc23)ccc1O [Compound 1, amodiaquine]
[1]
  ligand efficiency (LE): 0.26
  size-independent ligand eff. (SILE): 1.79
[2]
  EC50: ~20000 nM

## Cc1[nH]c2c(Cl)cccc2c1N [Compound 6, 7-chloro-2-methyl-1H-indol-3-amine]
[3]
  stability: not stable; also recorded: unstable

## Cc1nc2c(Cl)cccn2c1NC(=O)c1ccc(-c2ccccc2)[nH]1 [Compound 29]
[4]; result in words, at 10 µM
  EC50(Nur77): no effect; also recorded: no activation (10 µM)
[5]
  EC50(NOR-1): no effect; also recorded: no activation (10 µM)
[6]; at 10 µM
  EC50(NBRE): no activation (10 µM)
[7]; result in words, at 10 µM
  EC50(NurRE): no activation (10 µM)
[8]; result in words, at 10 µM
  EC50(DR5) [+0.1 µM BEX]: no activation (10 µM)
[9]; result in words, ITC with 100 µM 29 and 30 µM protein
  Kd(Nurr1 LBD): no detectable binding; also recorded: no binding ^b
[10]; 10 µM
  induction of Nurr1-regulated gene expression: no effect; also recorded: no induction
[11]
  aq. solubility: 4.1 µg/mL
[12]
  less active than 36 as Nurr1 modulator: more than 100 fold
[12]; result in words, at 10 µM
  EC50(Nurr1) (max. activation): no Nurr1 agonism; also recorded: inactive (10 µM); also recorded: no activation (10 µM)

## Cc1nc2c(Cl)cccn2c1NC(=O)c1ccc(-c2ccc(N(C)C)cc2)o1 [Compound 36, N-(8-Chloro-2-methylimidazo[1,2-a]pyridin-3-yl)-5-(4-(dimethylamino)phenyl)furan-2-carboxamide]
[4]
  EC50: 330 ± 40 nM
[6]; at 1 µM
  EC50(NBRE): inactive; also recorded: no activation (1 µM)
[7]
  EC50: 94 ± 3 nM
[8]; DR5, 0.1 µM BEX
  enhancement of potency by bexarotene (factor): > 5
[8]; with 0.1 µM bexarotene (BEX)
  EC50: 33 nM
[8]; without bexarotene, read-out: EC50(DR5)
  EC50: 165 nM
[9]; ITC at 25°C
  Kd: 170 nM
[10]; [14]
  expression of superoxide dismutase 2 (SOD2): induced expression
  expression of tyrosine hydroxylase (TH): induced expression
  expression of vesicular amino acid transporter 2 (VMAT2): induced expression
[11]
  aq. solubility: 6.8 µg/mL
[13]; Nurr1 vs. nuclear receptors outside the NR4A family
  selectivity: > 30 fold
[13]; at 3 µM, n=3
  activity outside the NR4A family: no off-target activity
[12]; Gal4-Nurr1 hybrid reporter gene assay, mean±SD, n≥3
  EC50: 90 ± 5 nM

Source: patent EP4596548A1, “NURR1 MODULATORS” (Ludwig-Maximilians-Universität, priority 2024, dated 2025)
